Source: ChEMBL document CHEMBL1201862, “PubChem BioAssay data set” (2004)
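Method: 48-hour compound exposure of cells in 96-well plates, five concentrations, linear interpolation of endpoints. GI50 is the concentration that inhibits growth by half.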 The source made the active and inactive calls. Rule as the data show it: active = GI50 up to about 1.1 µM and inactive = higher.

How the values were obtained:
Experiment in all cases: growth of human tumour cells (NCI), 48 h
[1] = system: UO-31
[2] = system: SK-MEL-2
[3] = system: KM12
[4] = system: UACC-257
[5] = system: DU-145
[6] = system: HT-29
[7] = system: NCI-H23
[8] = system: K562
[9] = system: PC-3
[10] = system: HOP-62
[11] = system: ACHN
[12] = system: A549
[13] = system: T47D
[14] = system: SF-295
[15] = system: RXF 393
[16] = system: OVCAR-5
[17] = system: SR
[18] = system: Malme-3M
[19] = system: NCI-H226
[20] = system: A498

CN1C(=O)[C@H](c2c[nH]c3ccccc23)[C@H](c2c[nH]c3ccccc23)C1=O
GI50 [1]: 15.5 µM (inactive)
GI50 [2]: 22.3 µM (inactive)
GI50 [3]: 36.1 µM (inactive)
GI50 [4]: 29.5 µM (inactive)
GI50 [5]: 48.3 µM (inactive)
GI50 [6]: 34.7 µM (inactive)
GI50 [7]: 22.3 µM (inactive)
GI50 [8]: 28.9 µM (inactive)
GI50 [9]: 24.3 µM (inactive)
GI50 [10]: 27.7 µM (inactive)
GI50 [11]: 23.8 µM (inactive)
GI50 [12]: 32.9 µM (inactive)
GI50 [13]: 87.9 µM (inactive)
GI50 [14]: 26.1 µM (inactive)
GI50 [15]: 26.7 µM (inactive)
GI50 [16]: > 41.6 µM (inactive)
GI50 [17]: 22.6 µM (inactive)
GI50 [18]: 36.5 µM (inactive)
GI50 [19]: 27.2 µM (inactive)

CN(C)C(=O)N1N[C@H](c2ccccc2)[C@@H]1c1ccccc1
GI50 [1]: > 100 µM (inactive)
GI50 [2]: > 100 µM (inactive)
GI50 [3]: > 100 µM (inactive)
GI50 [4]: > 100 µM (inactive)
GI50 [5]: > 100 µM (inactive)
GI50 [7]: > 100 µM (inactive)
GI50 [8]: > 100 µM (inactive)
GI50 [9]: 48 µM (inactive)
GI50 [20]: > 100 µM (inactive)
GI50 [10]: > 100 µM (inactive)
GI50 [11]: > 100 µM (inactive)
GI50 [12]: > 100 µM (inactive)
GI50 [13]: > 100 µM (inactive)
GI50 [14]: 72.3 µM (inactive)
GI50 [15]: 13.5 µM (inactive)
GI50 [18]: > 100 µM (inactive)
GI50 [19]: > 100 µM (inactive)

O=[As](O)(O)c1ccc(/N=N/c2ccc(O)cc2)cc1
GI50 [1]: > 100 µM (inactive)
GI50 [2]: > 100 µM (inactive)
GI50 [3]: > 100 µM (inactive)
GI50 [5]: > 100 µM (inactive)
GI50 [6]: > 100 µM (inactive)
GI50 [7]: > 100 µM (inactive)
GI50 [8]: 5.69 µM (inactive)
GI50 [9]: > 100 µM (inactive)
GI50 [20]: > 100 µM (inactive)
GI50 [10]: > 100 µM (inactive)
GI50 [11]: > 100 µM (inactive)
GI50 [12]: > 100 µM (inactive)
GI50 [13]: > 100 µM (inactive)
GI50 [14]: > 100 µM (inactive)
GI50 [15]: > 100 µM (inactive)
GI50 [16]: > 100 µM (inactive)
GI50 [18]: > 100 µM (inactive)
GI50 [19]: > 100 µM (inactive)

Cn1c2ccccc2c2c(-c3ccccc3)[n+]3ccccc3nc21
GI50 [1]: > 100 µM (inactive)
GI50 [2]: 20.2 µM (inactive)
GI50 [3]: 17.1 µM (inactive)
GI50 [4]: 18.4 µM (inactive)
GI50 [5]: 53.3 µM (inactive)
GI50 [6]: 53.7 µM (inactive)
GI50 [7]: 23.2 µM (inactive)
GI50 [8]: 34 µM (inactive)
GI50 [9]: 26.2 µM (inactive)
GI50 [20]: > 100 µM (inactive)
GI50 [10]: 22.5 µM (inactive)
GI50 [11]: 98.6 µM (inactive)
GI50 [12]: 52.7 µM (inactive)
GI50 [13]: 51.5 µM (inactive)
GI50 [14]: 46.3 µM (inactive)
GI50 [16]: 50.9 µM (inactive)
GI50 [17]: 23.9 µM (inactive)
GI50 [18]: 24.3 µM (inactive)

C=C(C)[C@]12CC(C)C34OC(/C=C\C=C\CCCCCCCCC)(O[C@@H]1[C@@H]3[C@@H]1O[C@]1(CO)[C@@H](O)[C@]1(O)C(=O)C(C)=C[C@@H]41)O2 (some centres not stated)
GI50 [1]: 11.2 µM (inactive)
GI50 [3]: 6.97 µM (inactive)
GI50 [4]: 14.7 µM (inactive)
GI50 [5]: 8.38 µM (inactive)
GI50 [6]: 2.21 µM (inactive)
GI50 [7]: 14.4 µM (inactive)
GI50 [8]: 0.0103 µM (active)
GI50 [9]: 2 µM (inactive)
GI50 [11]: 5.61 µM (inactive)
GI50 [12]: < 0.012 µM (active)
GI50 [13]: 11.9 µM (inactive)
GI50 [14]: 0.01 µM (active)
GI50 [15]: 14.8 µM (inactive)
GI50 [16]: 17.1 µM (inactive)
GI50 [17]: 2.16 µM (inactive)
GI50 [18]: 0.535 µM (active)
GI50 [19]: 18 µM (inactive)

CN1C/C(=C\c2cccs2)C2=NN(c3ccccc3)C(c3cccs3)C2C1 (configuration not stated)
GI50 [1]: 50 µM (inactive)
GI50 [2]: 25.5 µM (inactive)
GI50 [3]: 4.35 µM (inactive)
GI50 [4]: 5.92 µM (inactive)
GI50 [5]: 5.33 µM (inactive)
GI50 [6]: 3.14 µM (inactive)
GI50 [7]: > 100 µM (inactive)
GI50 [8]: 3.96 µM (inactive)
GI50 [9]: 10.7 µM (inactive)
GI50 [20]: > 27.3 µM (inactive)
GI50 [10]: 11.1 µM (inactive)
GI50 [11]: > 34 µM (inactive)
GI50 [12]: 7.33 µM (inactive)
GI50 [13]: 76 µM (inactive)
GI50 [14]: 4.95 µM (inactive)
GI50 [16]: > 100 µM (inactive)
GI50 [17]: 1.71 µM (inactive)
GI50 [19]: > 100 µM (inactive)

Cc1cn(C2CC(OC(=O)c3ccc(Cl)cc3)C(COC(=O)c3ccc(Cl)cc3)O2)c(=O)[nH]c1=O (configuration not stated)
GI50 [1]: > 100 µM (inactive)
GI50 [2]: > 100 µM (inactive)
GI50 [3]: > 100 µM (inactive)
GI50 [4]: > 100 µM (inactive)
GI50 [5]: > 100 µM (inactive)
GI50 [6]: > 100 µM (inactive)
GI50 [7]: > 100 µM (inactive)
GI50 [8]: > 100 µM (inactive)
GI50 [9]: > 100 µM (inactive)
GI50 [10]: > 100 µM (inactive)
GI50 [11]: > 100 µM (inactive)
GI50 [12]: > 100 µM (inactive)
GI50 [13]: > 100 µM (inactive)
GI50 [14]: > 100 µM (inactive)
GI50 [16]: > 100 µM (inactive)
GI50 [17]: > 100 µM (inactive)
GI50 [18]: > 100 µM (inactive)
GI50 [19]: > 100 µM (inactive)

CC(=O)Nc1ccc2c(C(=O)O)c(C)c(O)nc2n1
GI50 [1]: > 100 µM (inactive)
GI50 [2]: > 100 µM (inactive)
GI50 [3]: > 100 µM (inactive)
GI50 [4]: > 100 µM (inactive)
GI50 [5]: > 100 µM (inactive)
GI50 [6]: > 100 µM (inactive)
GI50 [7]: > 100 µM (inactive)
GI50 [8]: 59.8 µM (inactive)
GI50 [9]: > 100 µM (inactive)
GI50 [11]: > 100 µM (inactive)
GI50 [12]: > 100 µM (inactive)
GI50 [13]: 89.7 µM (inactive)
GI50 [14]: > 100 µM (inactive)
GI50 [15]: > 100 µM (inactive)
GI50 [16]: > 100 µM (inactive)
GI50 [17]: > 10 µM (inactive)
GI50 [18]: 95.7 µM (inactive)
GI50 [19]: 33.7 µM (inactive)

O=C(c1ccco1)N1CCCN(C(=O)c2ccco2)C1=S
GI50 [1]: > 100 µM (inactive)
GI50 [2]: 46.5 µM (inactive)
GI50 [3]: 82 µM (inactive)
GI50 [4]: > 100 µM (inactive)
GI50 [5]: > 100 µM (inactive)
GI50 [6]: > 100 µM (inactive)
GI50 [7]: > 100 µM (inactive)
GI50 [8]: > 100 µM (inactive)
GI50 [9]: 24.4 µM (inactive)
GI50 [20]: > 100 µM (inactive)
GI50 [10]: 72.1 µM (inactive)
GI50 [11]: > 100 µM (inactive)
GI50 [13]: 7.35 µM (inactive)
GI50 [15]: 39.6 µM (inactive)
GI50 [16]: > 100 µM (inactive)
GI50 [18]: 33 µM (inactive)
GI50 [19]: 36.4 µM (inactive)

CC1=CC=C2c3ccccc3C=CN2C(=O)C1
GI50 [1]: 30.9 µM (inactive)
GI50 [2]: 22.4 µM (inactive)
GI50 [3]: 36.3 µM (inactive)
GI50 [4]: 96.6 µM (inactive)
GI50 [5]: 52 µM (inactive)
GI50 [6]: 51.4 µM (inactive)
GI50 [7]: 61.9 µM (inactive)
GI50 [8]: 37.8 µM (inactive)
GI50 [9]: 50 µM (inactive)
GI50 [10]: > 100 µM (inactive)
GI50 [11]: 62.5 µM (inactive)
GI50 [12]: 41.3 µM (inactive)
GI50 [13]: 32.4 µM (inactive)
GI50 [14]: > 100 µM (inactive)
GI50 [16]: > 100 µM (inactive)
GI50 [17]: 40.7 µM (inactive)
GI50 [18]: > 100 µM (inactive)
GI50 [19]: 54.8 µM (inactive)

COc1ccc2cc3c4cc5c(cc4cc[n+]3cc2c1OC)OCO5
GI50 [1]: 36.3 µM (inactive)
GI50 [2]: 22.8 µM (inactive)
GI50 [3]: 2.88 µM (inactive)
GI50 [4]: 6.46 µM (inactive)
GI50 [5]: 30.3 µM (inactive)
GI50 [6]: 26.3 µM (inactive)
GI50 [7]: 8.09 µM (inactive)
GI50 [8]: 16.6 µM (inactive)
GI50 [9]: 14.2 µM (inactive)
GI50 [20]: > 100 µM (inactive)
GI50 [10]: 5.6 µM (inactive)
GI50 [11]: 38.4 µM (inactive)
GI50 [12]: 18.3 µM (inactive)
GI50 [13]: 17.4 µM (inactive)
GI50 [14]: 5.53 µM (inactive)
GI50 [15]: 24.4 µM (inactive)
GI50 [16]: 47.5 µM (inactive)
GI50 [18]: 4.83 µM (inactive)
GI50 [19]: 26.4 µM (inactive)
